Data: PubChem BioAssay AID1053203 (The Scripps Research Institute Molecular Screening Center, 2014)

Assay: growth inhibition of Trypanosoma brucei – absorbance, round 2, provider-run, counter-screen for T. brucei MetRS inhibitor project, late-stage follow-up (AID 1053203)
Conditions: T. brucei Lister 427 bloodstream growth, AlamarBlue, 48 h

Compound | IC50 (run 1) [nM] | IC50 (run 2) [nM]
CCN(CC)C(=O)C(=O)c1cn(CC(=O)Nc2cc(C(F)(F)F)cc(C(F)(F)F)c2)c2ccccc12 | 2600 | –
CCN(CC)C(=O)C(=O)c1cn(CC(=O)Nc2cc(C)cc(C(F)(F)F)c2)c2ccccc12 | 1720 | 2090
CCN(CC)C(=O)C(=O)c1cn(CC(=O)Nc2cccc(C(F)(F)F)c2)c2cc(OC)ccc12 | > 10000 | –
CCN(CC)C(=O)C(=O)c1cn(CC(=O)Nc2cc(Cl)cc(C(F)(F)F)c2)c2ccccc12 | 2640 | –
CCN(CC)C(=O)C(=O)c1cn(CC(=O)Nc2cc(Br)cc(C(F)(F)F)c2)c2ccccc12 | 3360 | –
CCN(CC)C(=O)C(=O)c1cn(CC(=O)Nc2cc(Oc3ccccc3)cc(C(F)(F)F)c2)c2ccccc12 | 1150 | 1070
